Columns and labels:
NRF-2 = assay: Western blot of NRF-2 expression in ARPE cells after H2O2 oxidative stress; format: cell-based, human; details: 1000 nM to 1 nM overnight, then H2O2, 24 hours, lower doses highest
Method: ARPE cells were plated and treated with 10-fold dilutions of R-DOI from 1000 nM to 1 nM. Following an overnight treatment, cells were incubated with hydrogen peroxide (H2O2) to mimic an oxidative stress induced disease event. 24 hours later, cell lysates were collected and protein levels were normalized among samples and run on a western blot for comparison of NRF-2 expression relative to a cellular protein loading control, b-actin. While doses increased protective NRF-2 expression, lower doses increased NRF-2 to the highest levels, accentuating the need for appropriate dose ranges in facilitating treatment effects.

ARPE cells [1] = assay: Mitochondrial morphology by fluorescent microscopy in ARPE cells expressing mitochondrial red/green fluorescent protein; format: cell-based, human; details: 100 nM, 50 nM or 10 nM; 48 hours post treatment
Method: Representative 5-HT2A Receptor Agonist, R-DOI, Increases Mitochondrial Biogenesis and Quality by Inducing Mitochondrial Fusion at low nM concentrations thereby reversing adverse processes that underlie development and progression of the Pathophysiology of Age-Associated Ocular and Neurodegenerative Diseases. ARPE cells transfected with plasmids that express either a red or green fluorescent protein biomarker that marks mitochondria were plated and treated with R-DOI @100 nM, 50 nM or 10 nM. 48 hours post treatment, mitochondrial morphology was evaluated by fluorescent microscopy.
• Fluorescent dyes limit researchers to study in a static manor due to fixation. We engineered a plasmid expressing mitochondrial localized AcGFP1/dsRed2. […]

ARPE cells [2] = assay: Blue light induced mitochondrial fragmentation in ARPE cells (mitotracker green); format: cell-based, human; details: 100 nM; 48 hours; hyperglycemic conditions; blue light 400 nm
Method: ARPE cells grown under hyperglycemic conditions were plated and mock treated or treated with R-DOI or 2C-iBu at 100 nM. 48 hours post treatment, mitochondria in live cells were visualized by staining mitochondria with mitotracker green (green). Once stained, live ARPE cells were exposed to focused blue light at 400 nm and the ability of drugs to protect against blue light damage-induced mitochondrial fragmentation was assessed.

ARPE-19 cells [3] = assay: ATP luciferase assay in ARPE-19 cells; format: cell-based, human
[4] = tested on: phosphorylated myosin light chain; assay: Western blot of phosphorylated myosin light chain (MLC) in ARPE-19 cells under hyperglycemic conditions; format: cell-based, human; details: ARPE-19, DMEM High glucose 7% FCS overnight; 10 nM; western blot
Method: A Hallmark of Age-Associated Ocular and Neurodegenerative Disorders is Cytoskeletal Alteration and Induction of CONTRACTILE Stress Fiber Formation. Expression and activation via phosphorylation of Myosin Light Chain (MLC), is a biomarker of disease development. ARPE-19 cells and ARPE-19 cells specifying 5-HT2AR knockouts were plated in nutrient rich media (DMEM; 7% FCS) overnight. Cells were fixed, permeabilized, and stained phalloidin and α-phosphorylated-Myosin light chain. Cytoskeletal elements were then visualized by fluorescent microscopy to visualize actin fiber cytoskeletal structures (phalloidin, red) and contractile phosphorylated myosin light chain (green) via fluorescent microscopy. […] ARPE-19 cells were cultured under hyperglycemic conditions in nutrient rich media (DMEM High glucose; 7% FCS) overnight either in the absence or presence of 5-HT2A receptor agonists R-DOI and 2CiBu at 10 nm or 100 nM concentrations. The relative expression of the activated disease biomarker contractile phosphorylated myosin light chain was determined using specific antibodies and western blot analysis. 5-HT2A agonists. […] Therefore, 5-HT2A agonism at low concentrations have the potential to prevent and reverse deleterious cytoskeletal events that can be induced under hyperglycemic conditions, such as in diabetics.
This can be consistent with 2C-iBu being able to regulate IOP and that 5HT2A agonists prevented edema formation and disruption of corneal architecture in a model of herpetic keratitis.

[5] = tested on: NAD synthesis and salvage; assay: RT-PCR of NAD synthesis and salvage pathways / NAD levels; format: cell-based
ARPE cells [6] = assay: Mitochondrial function and ATP production by Seahorse in ARPE cells; format: cell-based, human; details: 10 fold dilutions 100 nM to 0.001 nM; 48 hours
Method: Representative 5-HT2A Receptor Agonist, R-DOI Increases Mitochondrial Function And ATP Production at low nM and sub nanomolar concentrations thereby reversing adverse processes that underlie development and progression of the Pathophysiology of Age-Associated Ocular and Neurodegenerative Diseases. ARPE cells were plated and treated with 10 fold dilutions of R-DOI from 100 nM to 0.001 nM. 48 hours post treatment, mitochondrial function and ATP production was assessed by Seashorse.

SIRT1 and 3 = assay: Western analysis of Sirtuin (SIRT) 1 and 3 expression; format: cell-based; details: varying concentrations, increased as concentrations decreased to nM
Description: Sirtuins utilize NAD to suppress pathophysiological processes of aging, including diabetic retinopathies, AMD and Neurodegeneration. Representative western analysis of Sirtuin (SIRT) 1 and 3 expression following cellular treatment with the representative 5-HT2A Receptor agonist R-DOI at varying concentrations.

ARPE-19 cells [7] = assay: SA-β-Gal cellular senescence in ARPE-19 cells in nutrient rich media (DMEM); format: cell-based, human; details: 10 nM in starvation media overnight, then DMEM 7% FCS 72 hours
Method: ARPE-19 cells in nutrient rich media (DMEM; 7% FCS) were seeded overnight prior to being replaced with starvation media (DMEM; 0.5% FCS) containing 10 nM R-DOI or 10 nM M100,907. After overnight incubation in starvation media with drug, cells were swapped to DMEM 7% FCS media for 72-hours. After the 72-hour incubation, cells were fixed and stained for SA-β-Gal for 6-hours. Cells nuclei were then stained with DAPI for total-cell enumeration. SA-β-Gal positive cells, and total cells per frame, were quantified by microscopy.

## COc1cc(C[C@@H](C)N)c(OC)cc1I (single isomer, unassigned) [R-DOI, R enantiomer 2,5-Dimethoxy-4-iodoamphetamine]
NRF-2
  NRF-2 expression: Increases Expression of the master regulator of antioxidant gene expression NRF-2
NRF-2; listed as (R)-DOI
  NRF-2 expression: Upregulates Expression of NRF-2
ARPE cells [1]
  mitochondrial biomass and morphology: increased mitochondrial biomass with a non-fragmented fused morphology
ARPE cells [2]
  blue light induced mitochondrial fragmentation/damage: Inhibit Blue Light and Oxidative Stress Induced Mitochondrial Fragmentation/Damage
ARPE-19 cells [3]; 10 fold dilutions 100 nM to 0.1 nM
  ATP levels relative to Mock treated ARPE-19 cells: Increase Mitochondrial Function And ATP Production
ARPE-19 cells [3]; ARPE WT cells, 24 h after administration
  production of ATP: enhanced production of ATP
[4]
  hyperglycemia induced phosphorylated MLC levels: suppressed hyperglycemia induced phosphorylated MLC levels
[5]; higher doses
  NAD levels / NAD synthesis and salvage pathways: causes downregulation of these pathways and decreased NAD levels
[5]; low dose
  NAD levels / NAD synthesis and salvage pathways: increases protective NAD levels
ARPE cells [6]
  ATP production and mitochondrial respiration: increased ATP production and mitochondrial respiration
SIRT1 and 3
  SIRT1 and 3 expression: induced
SIRT1 and 3; listed as (R)-DOI
  SIRT1 and 3 expression: upregulates SIRT1
ARPE-19 cells [7]
  cellular senescence (SA-β-Gal positive cells): Decreases Basal Levels of Cellular Senescence
